In patent US11110096B2, “Combination therapies” (Infinity Pharmaceuticals, Inc., priority 2014, dated 2021):

Columns and labels:
HBL-1 = assay: Combination study Compound 1 + Bcl-2 inhibitor, ATPLite 72 h, DLBCL ABC cell line; type: cell-based; details: combination with Compound 1
From the text: (§1) The method is described as follows.

OCI-Ly3 = assay: as above; type: cell-based; details: combination with Compound 1
From the text: as §1

TMD8 = assay: as above; type: cell-based; details: combination with Compound 1
From the text: as §1

U-2932 = assay: as above; type: cell-based; details: combination with Compound 1
From the text: as §1

Farage = assay: Combination study Compound 1 + Bcl-2 inhibitor, ATPLite 72 h, DLBCL GCB cell line; type: cell-based; details: combination with Compound 1
From the text: as §1

OCI-Ly7 = assay: as above; type: cell-based; details: combination with Compound 1
From the text: as §1

SU-DHL-10-epst = assay: as above; type: cell-based; details: combination with Compound 1
From the text: as §1

DOHH-2 = assay: as above; type: cell-based; details: combination with Compound 1
From the text: (§2) The method is described as follows. […] Additive effect is CI=1.0. […] Antagonistic effect is CI>1.0.

SU-DHL-4-epst = assay: as above; type: cell-based; details: combination with Compound 1
From the text: as §2

KARPAS-422 = assay: Combination study Compound 1 + Bcl-2 inhibitor, ATPLite 72 h, follicular lymphoma cell line; type: cell-based; details: combination with Compound 1
From the text: as §1

RL = assay: as above; type: cell-based; details: combination with Compound 1
From the text: as §1

WSU-NHL = assay: as above; type: cell-based; details: combination with Compound 1
From the text: as §2

HH = assay: Combination study Compound 1 + Bcl-2 inhibitor, ATPLite 72 h, T-cell lymphoma cell line; type: cell-based; details: combination with Compound 1
From the text: (§3) The method is described as follows. […] The cell line includes HH and Karpas-299.

KARPAS-299 = assay: as above; type: cell-based; details: combination with Compound 1
From the text: as §3

GRANTA-519 = assay: Combination study Compound 1 + Bcl-2 inhibitor, ATPLite 72 h, mantle cell lymphoma cell line; type: cell-based; details: combination with Compound 1
From the text: (§4) The method is described as follows. […] These cell lines include GRANTA-519, Jeko-1 and Mino.

Jeko-1 = assay: as above; type: cell-based; details: combination with Compound 1
From the text: as §4

Mino = assay: as above; type: cell-based; details: combination with Compound 1
From the text: The method is described as follows. […] Additive effect is CI=1.0. […] Antagonistic effect is CI>1.0. […] These cell lines include GRANTA-519, Jeko-1 and Mino.

NCI-H929 = assay: Combination study Compound 1 + Bcl-2 inhibitor, ATPLite 72 h, multiple myeloma cell line; type: cell-based; details: combination with Compound 1
From the text: (§5) The method is described as follows. […] Additive effect is CI=1.0. […] Antagonistic effect is CI>1.0. […] These cell lines include NCI-H929, OMP-2, and RPMI-8226.

OPM-2 = assay: as above; type: cell-based; details: combination with Compound 1
From the text: as §5

RPMI-8226 = assay: as above; type: cell-based; details: combination with Compound 1
From the text: as §5

SU-DHL-4 control clones = assay: CTG (CellTiter-Glo) assay, control (DMSO-treated) clones; type: cell-based; details: Homo sapiens, read-out: AVG Cpnd 1 IC50
Description: (§6) Experiments were performed to examine the pathway and gene expression alterations in a cell line resistant to PI3K inhibitors. SU-DHL-4 is a DLBCL cell line. […] Five clones from each group were expanded. Cells were harvested for various assays, including CellTiter-Glo® assays, PD, RNA analysis, DNA analysis, and short tandem repeat (STR) fingerprinting.
(§7) Five clones from each group were expanded. Cells were harvested for various assays, including CTG (CellTiter-Glo, Promega, an assay that measures ATP levels as a surrogate for cell number in order to observe cell viability and changes in proliferation rate), PD (pharmacodynamic), RNA analysis, DNA analysis, and short tandem repeat (STR) fingerprinting. […] See, e.g., FIG. 16.

[1] = test system: SU-DHL-4 Compound 1 resistant clones; assay: CTG (CellTiter-Glo) assay, Compound 1 resistant clones; type: cell-based; details: Homo sapiens, Cpnd 1 resistant clones
Description: as §6, §7

[2] = test system: SU-DHL-4 IBR resistant clones; assay: CTG (CellTiter-Glo) assay, ibrutinib resistant clones; type: cell-based; details: Homo sapiens, read-out: AVG Cpnd 1 IC50
Description: as §6

Bcl-2 family genes = assay: RNAseq gene expression changes in peripheral blood of Compound 1-treated CLL patients; type: in vivo, human
Description: RNAseq technology was used to measure gene expression changes in peripheral blood in patients treated with Compound 1. The patients were treated as part of a clinical trial (identifier NCT01476657) which is a phase 1 study in patients with advanced hematologic malignancies. Briefly, RNA was extracted from 200 ul of blood using TRI reagent, followed by RNA purification using a Zymo-Spin column. Timepoints were taken at baseline and cycle 1 day 8 (C1D8), which is 7 days of Compound 1 treatment. Expression was quantified using both FPKM and VOOM methods. Filters were used to prioritize genes identified during this analysis.

CLL = assay: Compound 1 monotherapy in a patient with CLL (clinical trial); type: in vivo, human; details: 25 mg bid monotherapy
Description: A patient diagnosed with CLL was treated by a monotherapy of Compound 1 (25 mg bid) in a clinical trial. Serum samples of the patient were collected at various points in the treatment. The copy number of STK11 in the serum samples was determined by CytoScan (Affymetrix).

[3] = peripheral blood, Compound 1-treated patients, baseline vs C1D8

CC1(C)CCC(c2ccc(Cl)cc2)=C(CN2CCN(c3ccc(C(=O)NS(=O)(=O)c4ccc(N[C@H](CCN5CCOCC5)CSc5ccccc5)c(S(=O)(=O)C(F)(F)F)c4)cc3)CC2)C1 [ABT-263, (R)-4-(4-((4′-chloro-4,4-dimethyl-3,4,5,6-tetrahydro-[1,1′-biphenyl]-2-yl)methyl)piperazin-1-yl)-N-((4-((4-morpholino-1-(phenylthio)butan-2-yl)amino)-3((trifluoromethyl)sulfonyl)phenyl)sulfonyl)benzamide]
W (W=≥1): CI50 inhibition (OCI-Ly3) | CI50 growth inhibition (OCI-Ly7) | CI50 inhibition (GRANTA-519)
U (U=0.7 to <1): CI50 inhibition (HBL-1) | CI50 growth inhibition (OCI-Ly3) | CI50 growth inhibition (SU-DHL-10-epst) | CI50 inhibition (SU-DHL-10-epst) | CI50 growth inhibition (RL) | CI50 inhibition (RL) | CI50 growth inhibition (HH) | CI50 growth inhibition (NCI-H929) | CI50 inhibition (OPM-2) | CI50 inhibition (RPMI-8226)
S (S=0.1 to <0.5): CI50 growth inhibition (HBL-1) | CI50 growth inhibition (TMD8) | CI50 growth inhibition (DOHH-2) | CI50 inhibition (DOHH-2) | CI50 inhibition (SU-DHL-4-epst) | CI50 growth inhibition (KARPAS-422) | CI50 inhibition (WSU-NHL) | CI50 inhibition (HH) | CI50 growth inhibition (GRANTA-519) | CI50 growth inhibition (Jeko-1) | CI50 inhibition (Jeko-1) | CI50 growth inhibition (Mino)
T (T=0.5 to <0.7): CI50 inhibition (TMD8) | CI50 growth inhibition (U-2932) | CI50 inhibition (U-2932) | CI50 growth inhibition (Farage) | CI50 inhibition (Farage) | CI50 growth inhibition (SU-DHL-4-epst) | CI50 inhibition (KARPAS-422) | CI50 growth inhibition (WSU-NHL) | CI50 inhibition (Mino) | CI50 inhibition (NCI-H929) | CI50 growth inhibition (OPM-2) | CI50 growth inhibition (RPMI-8226)
A2 (A2=1 to <3): Synergy score inhibition (HBL-1) | Synergy score inhibition (TMD8) | Synergy score inhibition (U-2932) | Synergy score inhibition (Farage) | Synergy score inhibition (SU-DHL-10-epst) | Synergy score inhibition (HH) | Synergy score inhibition (Mino) | Synergy score growth inhibition (NCI-H929) | Synergy score inhibition (NCI-H929) | Synergy score inhibition (OPM-2) | Synergy score inhibition (RPMI-8226)
A4 (A4=≥10): Synergy score growth inhibition (DOHH-2) | Synergy score growth inhibition (SU-DHL-4-epst) | Synergy score growth inhibition (KARPAS-422) | Synergy score growth inhibition (WSU-NHL)
A3 (A3=3 to <10): Synergy score growth inhibition (HBL-1) | Synergy score growth inhibition (OCI-Ly3) | Synergy score growth inhibition (TMD8) | Synergy score growth inhibition (U-2932) | Synergy score growth inhibition (Farage) | Synergy score growth inhibition (SU-DHL-10-epst) | Synergy score inhibition (DOHH-2) | Synergy score inhibition (SU-DHL-4-epst) | Synergy score inhibition (KARPAS-422) | Synergy score growth inhibition (RL) | Synergy score inhibition (WSU-NHL) | Synergy score growth inhibition (HH) | Synergy score growth inhibition (GRANTA-519) | Synergy score growth inhibition (Jeko-1) | Synergy score inhibition (Jeko-1) | Synergy score growth inhibition (Mino) | Synergy score growth inhibition (OPM-2) | Synergy score growth inhibition (RPMI-8226)
A1 (A1=0.0001 to <1): Synergy score inhibition (OCI-Ly3) | Synergy score growth inhibition (OCI-Ly7) | Synergy score inhibition (OCI-Ly7) | Synergy score inhibition (RL) | Synergy score growth inhibition (KARPAS-299) | Synergy score inhibition (KARPAS-299) | Synergy score inhibition (GRANTA-519)

C[C@H](Nc1ncnc2[nH]cnc12)c1cc2cccc(Cl)c2c(=O)n1-c1ccccc1 [Compound 1, (S)-3-(1-((9H-purin-6-yl)amino)ethyl)-8-chloro-2-phenylisoquinolin-1(2H)-one]
up-regulated: BBC3 (also called PUMA) gene expression change (Bcl-2 family genes; [3]) | BMF gene expression change (Bcl-2 family genes; [3]) | Bcl2L11 (also called BIM) gene expression change (Bcl-2 family genes; [3]) | Bcl2 gene expression change (Bcl-2 family genes; [3]) | HRK gene expression change (Bcl-2 family genes; [3]) | PMAIP1 (also called NOXA) gene expression change (Bcl-2 family genes; [3])
5420 ± 1080 nM: IC50 [1]
at least 1.5 fold: HRK expression level increase (Bcl-2 family genes; many of the patients having stable disease or partial remission, after 7 days of Compound 1 treatment, FIG. 7)
805 ± 339 nM: IC50 [2]
241 ± 17 nM: IC50 (SU-DHL-4 control clones)
downregulated: BIK gene expression change (Bcl-2 family genes; [3])
partial response: patient response (CLL; at C3D1 (cycle 3, day 1))
progressed: patient response (CLL; after C7 (cycle 7))
